Reference: patent US8859578B2, “Natural product derivatives with antiprotozoal activity” (Radix Pharmaceuticals, Inc., priority 2012, dated 2014)
“And” between values parts separate entries of the source, which are not always exact repeats. Equal values may be shown once. Read-outs that look alike come from different tables or passages of the source.

What was measured:
P. falciparum K1 = test: In vitro blood stage antimalarial activity, [3H]hypoxanthine uptake; assay type: cell-based; conditions: Plasmodium falciparum
Method: (§1) In Vitro Blood Stage Antimalarial Efficacy Evaluation. New compounds were tested against a panel of strains of P. falciparum.
(§2) Test compounds were initially dissolved in DMSO and diluted 400 fold in RPMI 1640 culture medium supplemented with 25 mM Hepes, 32 mM NaHCO3 and 10% Albumax I (Gibco, NY). These solutions were subsequently serially diluted two-fold with a Beckman Biomek® 1000 Robot (Fullerton, Calif.) over 11 different concentrations. The parasites were exposed to serial dilutions of each compound for 48 hrs and incubated at 37° C. with 5% O2, 5% CO2 and 90% N2 prior to the addition of [^3H]hypoxanthine. After a further incubation of 18 hrs, parasite DNA was harvested from each microtiter well using Packard Filtermate™ 196 Harvester (Meriden, Conn.) onto glass filters. Uptake of [^3H]hypoxanthine was measured with a Packard TopCount Liquid Scintillation Counter (Packard Instrument Co.).

rodent P. berghei = test: Antimalarial potency (MCD, MCureD) and therapeutic indices, rodent P. berghei; assay type: in vivo
Method: Antimalarial potency was measured by determination of the MCD (minimum clearance dose), a commonly used efficacy measurement. The primary therapeutic indices, which were obtained by using the MCDs as the effective parameters, were calculated. A secondary therapeutic indices measure of antimalarial potency was determined by use of the dose for the MCureD (minimum curative dose).

Plasmodium cynomolgi = test: Radical curative activity in relapsed Rhesus monkeys; assay type: in vivo; conditions: for Monkeys cured: co-administered with chloroquine, two monkeys; for Days post-treatment (to relapse): with CQ 10 mg/kg/day for 7 days, one value per monkey
Method: Compounds with antihypnozoite activity will delay the relapse or radically cure the infection. […] Relapse was expected in the control group. Relapse in the treated group indicates failure of the test compounds. […] Relapse in experimental animals and the second relapse of the control monkeys were treated with the standard 7 day oral CQ and primaquine (1.78 mg base/kg).

P. falciparum PH3 = test: In vitro blood stage antimalarial activity, [3H]hypoxanthine uptake; assay type: cell-based; conditions: Plasmodium falciparum
Method: as §1, §2

P. falciparum TM6 = test: as above; assay type: cell-based; conditions: Plasmodium falciparum
Method: as §1, §2

P. falciparum TM4 = test: as above; assay type: cell-based; conditions: Plasmodium falciparum
Method: as §1, §2

P. falciparum 3D7 = test: as above; assay type: cell-based; conditions: Plasmodium falciparum
Method: as §1, §2

P. falciparum DD2 = test: as above; assay type: cell-based; conditions: Plasmodium falciparum
Method: as §1, §2

P. falciparum V1S = test: microbe, parasite or virus in culture; assay type: cell-based; conditions: Plasmodium falciparum
Method: as §1, §2

[1] = tested on: Plasmodium cynomolgi sporozoite; test: Causal prophylactic activity in P. cynomolgi sporozoite-challenged Rhesus monkeys; assay type: in vivo; conditions: PO 15 mg/kg, 1 daily for 3 days
Excerpt: Two monkeys were used in each test group. The control animals developed parasitemia in about 10 days after inoculation of about 1×10^6 P. cynomolgi sporozoites harvested from Anopheles dirus. All the monkeys received three treatments, once a day for three consecutive days beginning a day before (−1, 0, +1) the sporozoites challenge. The control monkeys (group 1) received HECT and the experimental animals received testing compound by using 8 Fr., 15-in. long nasogastric tubes.

[2] = tested on: chloroquine-resistant FVO strain of P. falciparum; test: Efficacy against blood stages of P. falciparum in Aotus monkeys; assay type: in vivo; conditions: oral for 3 days
Excerpt: In Vivo Efficacy Studies in Aotus Monkey Model. The monkeys selected for the study had active infections of the chloroquine-resistant FVO strain of P. falciparum.
Malaria-naive Panamanian owl monkeys (Aotus lemurinus lemurinus) were used as hosts for chioroquine-resistant P. falciparum. The chloroquine-resistant Vietnam Smith strain was used in the initial experiments. In subsequent studies, a recrudescent isolate from a Vietnam Smith strain infected Aotus monkey treated with chloroquine was used.
The inoculum size produced a parasitemia of at least 5×10^3/mm^3 by the fifth day postinoculation, at which time treatment was begun. Stock solutions of water-soluble drug were prepared at appropriate concentrations and maintained at 4° C. during the course of treatment. A suspension of water-insoluble drugs was prepared in 0.3% methylcellulose just prior to use. All drugs were administered by gastric intubation in a volume of 7.0 ml, followed by a 7.0-mi rinse with either water or 0.3% methylcellulose. Test drug was given orally for either three or seven consecutive days. […]
Giemsa-stained blood smears were prepared from all animals and examined daily beginning the day after inoculation until parasitemia was cleared and for at least seven days thereafter. […] Ten or less parasites on a thick blood film were recorded as <10. Parasitemia was enumerated and expressed as number of parasites/mm^3. […]

in vivo = conditions: Sprague-Dawley, rat, po
[3] = tested on: Liver Stage of P. yoelii yoelii; test: In vitro liver-stage antimalarial efficacy; assay type: cell-based; conditions: Plasmodium yoelii
Method: In Vitro Liver-Stage Antimalarial Efficacy Evaluation. Any new desirable antimalarial drug should be broad spectrum: it should be active against both the blood stage and the liver stage of the parasite. New compounds were assessed on the Plasmodium yoelii liver stage in vitro. The liver stage of P. yoelii is a parasite of rodent extensively used as an experimental model for studying the initial phase of the malaria infection.

Plasmodium berghei = test: Oral prophylactic test in mice; assay type: in vivo

**Q.** Which IC50 (P. falciparum K1; read-out: IC50) does the source give for `CCN(CC)Cc1cc(Nc2ccnc3cc(Cl)ccc23)ccc1O` [Amodiaquine] here?
**A.** 21.2 ± 2.1 nM

**Q.** Which “MCureD (minimum curative dose)” value (rodent P. berghei; route of administration iv) does the source give for `C[C@H]1[C@H](OC(=O)CCC(=O)O)O[C@@H]2O[C@@]3(C)CC[C@H]4[C@H](C)CC[C@@H]1[C@@]24OO3` [Artesunate] here?
**A.** 25.4 mg/kg

**Q.** Which results are given for `CCN(CC)CCCC(C)Nc1ccnc2cc(Cl)ccc12` (stereo not drawn) [Chloroquine, reference compound]?
**A.** MCureD (minimum curative dose) (rodent P. berghei; administered orally): None; Results (radical curative test) (Plasmodium cynomolgi; Rhesus monkeys, chloroquine alone, 10 mg/kg/day for 7 days): relapse; IC50 (P. falciparum K1): 166 ± 19.3 nM; IC50 (P. falciparum PH3): 33.4 ± 9.1 nM; IC50 (P. falciparum TM6): 96.4 ± 6.9 nM; IC50 (P. falciparum TM4): 115 ± 12.7 nM; IC50 (P. falciparum 3D7): 9.7 ± 3.4 nM; IC50 (P. falciparum DD2): 45.8 ± 10.2 nM; IC50 (P. falciparum V1S): 152 ± 14.1 nM

**Q.** With `COc1cc2c(c3cc4c(nc13)C=C[C@@]1([C@H]3CC([C@H](O)[C@@H](N)C(C)C)OCO3)C=CCOC41)[C@@H]1OCOC[C@]1(C)N2` (stereo partly drawn) [Formula A] as the compound, how does the “Delay of patency compared with untreated control monkeys” value [1] read?
**A.** delayed patency of treated monkeys more than a month

**Q.** What about the “Parasite patency (days postinoculation)” value ([1]; one value per monkey, control 8 days, 15 mg/kg) of the same compound?
**A.** 42 days and 60 days

**Q.** What about the “dosage needed to cure 50% of animals” value [2] of the same compound?
**A.** 2 mg/kg/day

**Q.** And the “dosage needed to cure 100% of animals” value [2]?
**A.** 8 mg/kg/day

**Q.** And the NOAEL at 2 weeks (in vivo)?
**A.** > 100 mg/kg/day

**Q.** And the MTD at 2 weeks (in vivo; MTD (maximum tolerated dose))?
**A.** > 500 mg/kg

**Q.** And the IC50 [3]?
**A.** 6.2 nM

**Q.** What about the “MCureD (minimum curative dose)” value (rodent P. berghei; administered orally) of the same compound?
**A.** 12.6 mg/kg

**Q.** What about the Monkeys cured (Plasmodium cynomolgi; 15 mg/kg/day level) of the same compound?
**A.** one out of two monkeys

**Q.** What about the Monkeys cured (Plasmodium cynomolgi; 30 mg/kg/day level) of the same compound?
**A.** both monkeys

**Q.** And the “Days post-treatment (to relapse)” value (Plasmodium cynomolgi; Rhesus monkeys, PO 15 mg/kg 1 daily for 3 days)?
**A.** 44 days and no relapse

**Q.** And the “Days post-treatment (to relapse)” value (Plasmodium cynomolgi; Rhesus monkeys, PO 30 mg/kg 1 daily for 3 days)?
**A.** no relapse

**Q.** And the IC50 (P. falciparum K1; read-out: IC50)?
**A.** 0.35 ± 0.06 nM

**Q.** What about the IC50 (P. falciparum PH3; read-out: IC50) of the same compound?
**A.** 0.27 ± 0.05 nM

**Q.** What about the IC50 (P. falciparum TM6; read-out: IC50) of the same compound?
**A.** 0.27 ± 0.05 nM

**Q.** What about the IC50 (P. falciparum TM4; read-out: IC50) of the same compound?
**A.** 0.41 ± 0.09 nM

**Q.** And the IC50 (P. falciparum 3D7; read-out: IC50)?
**A.** 0.12 ± 0.03 nM

**Q.** And the IC50 (P. falciparum DD2; read-out: IC50)?
**A.** 0.17 ± 0.04 nM

**Q.** What about the IC50 (P. falciparum V1S) of the same compound?
**A.** 0.21 ± 0.03 nM

**Q.** And the “Mice infected and treated/Mice surviving day 60” value (Plasmodium berghei; day of treatment 1, dose 0.5 mg/kg oral)?
**A.** 5/5

**Q.** And the “Mice infected and treated/Mice surviving day 60” value (Plasmodium berghei; day of treatment 1, dose 2 mg/kg oral)?
**A.** 5/5

**Q.** What about the “Mice infected and treated/Mice surviving day 60” value (Plasmodium berghei; day of treatment 1, dose 8 mg/kg oral) of the same compound?
**A.** 5/5

**Q.** And the “Mice infected and treated/Mice surviving day 60” value (Plasmodium berghei; day of treatment 1, dose 32 mg/kg oral)?
**A.** 5/5

**Q.** What about the “Mice infected and treated/Mice surviving day 60” value (Plasmodium berghei; day of treatment 2, dose 0.5 mg/kg oral) of the same compound?
**A.** 5/5

**Q.** And the “Mice infected and treated/Mice surviving day 60” value (Plasmodium berghei; day of treatment 2, dose 2 mg/kg oral)?
**A.** 5/5

**Q.** And the “Mice infected and treated/Mice surviving day 60” value (Plasmodium berghei; day of treatment 2, dose 8 mg/kg oral)?
**A.** 5/5

**Q.** What about the “Mice infected and treated/Mice surviving day 60” value (Plasmodium berghei; day of treatment 2, dose 32 mg/kg oral) of the same compound?
**A.** 5/5

**Q.** And the “Mice infected and treated/Mice surviving day 60” value (Plasmodium berghei; day of treatment −1, dose 0.5 mg/kg oral)?
**A.** 5/5

**Q.** What about the “Mice infected and treated/Mice surviving day 60” value (Plasmodium berghei; day of treatment −1, dose 2 mg/kg oral) of the same compound?
**A.** 5/5

**Q.** And the “Mice infected and treated/Mice surviving day 60” value (Plasmodium berghei; day of treatment −1, dose 8 mg/kg oral)?
**A.** 5/5

**Q.** What about the “Mice infected and treated/Mice surviving day 60” value (Plasmodium berghei; day of treatment −1, dose 32 mg/kg oral) of the same compound?
**A.** 5/5

**Q.** And the “Mice infected and treated/Mice surviving day 60” value (Plasmodium berghei; day of treatment −2, dose 0.5 mg/kg oral)?
**A.** 5/5

**Q.** And the “Mice infected and treated/Mice surviving day 60” value (Plasmodium berghei; day of treatment −2, dose 2 mg/kg oral)?
**A.** 5/5

**Q.** What about the “Mice infected and treated/Mice surviving day 60” value (Plasmodium berghei; day of treatment −2, dose 8 mg/kg oral) of the same compound?
**A.** 5/5

**Q.** What about the “Mice infected and treated/Mice surviving day 60” value (Plasmodium berghei; day of treatment −2, dose 32 mg/kg oral) of the same compound?
**A.** 5/5

**Q.** And the “Protection from malaria (oral prophylactic activity)” value (Plasmodium berghei; mice, single dose of 0.5 mg/kg within 2 days pre-infection through 2 days post-infection)?
**A.** completely protected from malaria

**Q.** With `COc1cc(NC(C)CCCN)c2ncccc2c1` (stereo not drawn) [Primaquine, reference compound] as the compound, how does the IC50 [3] read?
**A.** 76 nM
